In one data set the test system is HEK293 cells. The data set can be described thus: Cytotoxicity, MTT assay. Format: cell-based, human. Particulars: 20–24 h. As for the experimental part: The cytotoxicity of each peptide was determined in HEK293 cells using the thiazolylblue (MTT) assay as described by Zhu. Briefly, HEK293 cells were subcultured overnight in 96-well plates with 10% fetal calf serum and […] at 37 °C in 5% CO2. The cell suspension was then prepared. Two-fold serial dilutions of the peptides were prepared using DMEM. Cell suspensions were added to the plates and incubated for 20–24 h at 37 °C in a cell incubator. Next, 40 μL MTT solution was added to every well, and the plates were incubated for 4 h at 37 °C. Finally, 150 μL DMSO was added to each well, the plates were shaken for 10 min, and the absorbance was measured at 492 nm using a microplate reader.
(In general: Formazan colour is commonly taken as a measure of viable cells.)

The subject of the next data set is E. coli ATCC 25922. The format is cell-based. The note with it: ATCC25922, 18 h.
A further data set has as its system E. coli UB 1005. Format: cell-based. Particulars: UB 1005, 18 h.
The test system of data set [1] is Salmonella typhimurium C 7731. Format: cell-based.
Experimental: (§2) The antimicrobial activity of the peptides were defined as the minimum inhibitory concentrations (MIC) according to the Clinical and Laboratory Standards Institute broth microdilution method as described previously [47]. Briefly, 50 μL two-fold serial dilutions of peptides (with final concentrations ranging from 0 μM to 256 μM) and 50 μL bacterial fluids diluted with MHB were added to 96-well microtiter plates. The plates were then incubated at 37 °C for 18 h.
The subject of data set [2] is Salmonella typhimurium ATCC 14028. The format is cell-based.
Experimental: as §2
The subject of data set [3] is Salmonella pullorum C 7913. The format is cell-based. Particulars: 18 h.
For data set [4], the system named is Salmonella enterica subsp. CMCC 50071. Particulars: MHB, 37 °C, 18 h, peptides 0-256 μM, triplicate samples. As for the experimental part: (§1) The antimicrobial activity of the peptides were defined as the minimum inhibitory concentrations (MIC) according to the Clinical and Laboratory Standards Institute broth microdilution method as described previously. Briefly, 50 μL two-fold serial dilutions of peptides (with final concentrations ranging from 0 μM to 256 μM) and 50 μL bacterial fluids diluted with MHB were added to 96-well microtiter plates. The plates were then incubated at 37 °C for 18 h.

The next data set deals with S. aureus ATCC 29213. Format: cell-based.
Another data set deals with S. aureus ATCC 25923. The format is cell-based.
The test system of data set [5] is S. epidermidis ATCC 12228. The format is cell-based.
Experimental: as §2
Another data set concerns E. coli ATCC25922. Particulars: for MIC in the presence of Ca2+ / MIC in the presence of Fe3+ / MIC in the presence of K+ / MIC in the presence of Mg2+ / MIC in the presence of NH4+ / MIC in the presence of Na+ / MIC in the presence of Zn2+ / MIC, Control (enzymatic stability) / MIC, Control (salt stability) / MIC, Control (thermal stability): ATCC25922, 18 h; for MIC after Trypsin: peptide treated with 1 mg/mL trypsin. As for the experimental part: as §1
We assessed the salt stability, thermal stability, and enzymatic stability of the AMPs. Briefly, E. coli ATCC25922 was selected as the test bacterium. The control group was untreated peptides. Different concentrations of salts (150 mM NaCl, 4.5 mM KCl, 6 μM NH4Cl, 1 mM MgCl2, […], 8 mM […], 2.5 mM CaCl2, and 4 mM FeCl3) were added to the incubation buffer to examine the effect of each salt on the antimicrobial activities of the peptides. AMPs were treated for 1 h at 100 °C to test the thermal stability. AMPs were also treated with trypsin, pepsin, papain, and protease K at a concentration of 1 mg/mL for 1 h at 37 °C to test enzyme stability.

Results on three compounds are retold here after PMC6213309, “Antibacterial Activity and Mechanism of Action of Bovine Lactoferricin Derivatives with Symmetrical Amino Acid Sequences” (International Journal of Molecular Sciences, 2018).

By cell viability is commonly meant a per cent measure of how many cells are alive, often set against a control. Read a high cell viability as less harm to the cells. For orientation: MIC means the smallest concentration in the dilution series that meets the test's criterion for growth inhibition. A low value points to greater potency.

Like-named read-outs stand apart in the source and are kept apart here. Ends that are not written are not given here. A value given as a limit tells only on which side of the number the result lay.

Experimental for E. coli ATCC 25922: as §2
Experimental for E. coli UB 1005: as §2

As for `CC[C@H](C)[C@H](NC(=O)CN)C(=O)NCC(=O)N[C@@H](C)C(=O)N[C@H](C(=O)N[C@@H](CC(C)C)C(=O)N[C@@H](CCCCN)C(=O)N[C@H](C(=O)N[C@@H](CC(C)C)C(=O)N[C@H](C(=O)N[C@H](C(=O)NCC(=O)N[C@@H](CC(C)C)C(=O)N1CCC[C@H]1C(=O)N[C@@H](C)C(=O)N[C@@H](CC(C)C)C(=O)N[C@H](C(=O)N[C@@H](CO)C(=O)N[C@@H](Cc1c[nH]c2ccccc12)C(=O)N[C@H](C(=O)N[C@@H](CCCCN)C(=O)N[C@@H](CCCNC(=N)N)C(=O)N[C@@H](CCCCN)C(=O)N[C@@H](CCCNC(=N)N)C(=O)N[C@@H](CCC(N)=O)C(=O)N[C@@H](CCC(N)=O)C(N)=O)[C@@H](C)CC)[C@@H](C)CC)[C@@H](C)O)[C@@H](C)O)C(C)C)C(C)C` [melittin], the cell viability is listed as 41.95% in the data set on HEK293 cells (4 μM), 23.40% with HEK293 cells (8 μM) and 0% with HEK293 cells (16 μM).
For the compound KKRRWQWRRKK-NH2 [KK-KK], the MIC in the data set on E. coli ATCC 25922 is 32 µM. The compound also yielded an MIC with E. coli UB 1005 of 32 µM. In data set [1] (Salmonella typhimurium C 7731, MHB, 37 °C, 18 h, peptides 0-256 μM, triplicate samples), this compound came in with a minimum inhibitory concentration (MIC) of more than 128 µM. Moreover, the MIC in data set [2] (Salmonella typhimurium ATCC 14028, MHB, 37 °C, 18 h, peptides 0-256 μM, triplicate samples) was more than 128 µM. Further, in data set [3] (Salmonella pullorum C 7913, MHB, 37 °C, peptides 0-256 μM, triplicate samples), the MIC turned out to be 128 µM. The same compound yielded an MIC in data set [4] of 128 µM. Besides, the MIC against S. aureus ATCC 29213 (S. aureus ATCC 29213, MHB, 37 °C, 18 h, peptides 0-256 μM, triplicate samples) is more than 128 µM. The compound also registered an MIC with S. aureus ATCC 25923 (S. aureus ATCC 25923, MHB, 37 °C, 18 h, peptides 0-256 μM, triplicate samples) of 128 µM. The compound also gave an MIC in [5] (S. epidermidis ATCC 12228, MHB, 37 °C, 18 h, peptides 0-256 μM, triplicate samples) of more than 128 µM. In the data set on E. coli ATCC25922, the “MIC in the presence of Ca2+” value turned out to be 16 µM, the “MIC in the presence of Fe3+” value stood at 8 µM, the “MIC in the presence of K+” value was 16 µM and the “MIC in the presence of Mg2+” value is 64 µM. Moreover, in the data set on E. coli ATCC25922, the “MIC in the presence of NH4+” value stood at 8 µM; the “MIC in the presence of Na+” value stood at 16 µM; the “MIC in the presence of Zn2+” value is 8 µM; the “MIC, Control (enzymatic stability)” value was 32 µM. Further, in the data set on E. coli ATCC25922, the “MIC, Control (salt stability)” value was found to be 32 µM and the “MIC, Control (thermal stability)” value turned out to be 32 µM. Besides, in the data set on E. coli ATCC25922 (E. coli ATCC25922, peptide treated 1 h at 100 °C), the “MIC following heating at 100 °C” value is more than 128 µM. Further, the “MIC after Papain” value in the data set with E. coli ATCC25922 (E. coli ATCC25922, peptide treated with 1 mg/mL papain, 1 h, 37 °C) is more than 128 µM. The “MIC after Pepsin” value in the data set on E. coli ATCC25922 (E. coli ATCC25922, peptide treated with 1 mg/mL pepsin, 1 h, 37 °C) was more than 128 µM. Also, the “MIC after Protease K” value against E. coli ATCC25922 (E. coli ATCC25922, peptide treated with 1 mg/mL protease K, 1 h, 37 °C) was more than 128 µM. In addition, in the data set with E. coli ATCC25922 (E. coli ATCC25922, 1 h, 37 °C), the “MIC after Trypsin” value is more than 128 µM.
In the case of KWRRWQWRRWK-NH2 [KW-WK], in the data set with E. coli ATCC 25922, the MIC was found to be 4 µM. Besides, the MIC against E. coli UB 1005 worked out at 8 µM. In data set [1] (murium C 7731, 18 h), the minimal inhibitory concentration (MIC) was 16 µM. Further, in [2] (ATCC 14028, 18 h), the MIC was 32 µM. Besides, in data set [3], the MIC turned out to be 16 µM. In data set [4], this compound had a minimal inhibitory concentration (MIC) of 128 µM. Also, the MIC against S. aureus ATCC 29213 (ATCC 29213, 18 h) is 8 µM. The same compound gave an MIC in the data set with S. aureus ATCC 25923 (ATCC 25923, 18 h) of 32 µM. This compound yielded an MIC in [5] (ATCC 12228, 18 h) of 8 µM. In the data set with E. coli ATCC25922 (ATCC25922, 1 h), the “MIC after Papain” value stood at 8 µM, the “MIC after Pepsin” value worked out at 16 µM, the “MIC after Protease K” value stood at 8 µM and the “MIC following heating at 100 °C” value came out at 4 µM. In the data set with E. coli ATCC25922, the “MIC in the presence of Ca2+” value amounted to 8 µM, the “MIC in the presence of Fe3+” value was 4 µM, the “MIC in the presence of K+” value was 4 µM and the “MIC in the presence of Mg2+” value was found to be 8 µM. For the same compound, in the data set on E. coli ATCC25922, the “MIC in the presence of NH4+” value was 8 µM; the “MIC in the presence of Na+” value stood at 8 µM; the “MIC in the presence of Zn2+” value was 8 µM; the “MIC, Control (enzymatic stability)” value was 4 µM. Also, in the data set on E. coli ATCC25922, the “MIC, Control (salt stability)” value was 4 µM and the “MIC, Control (thermal stability)” value is 4 µM. In addition, in the data set on E. coli ATCC25922 (E. coli ATCC25922, 1 h, 37 °C), the “MIC after Trypsin” value is more than 128 µM.
